Experimental data: patent US20250161243A1, “MEF2 TRANSCRIPTIONAL ACTIVATORS TO TREAT NEUROLOGIC CONDITIONS” (The Scripps Research Institute, priority 2022, published 2025)
Structures can show the parent of a compound that is named as a salt. Where two headings read alike, the source gives them in different places.

Key:
[1] = tested on: MEF2 transcriptional activity; assay: MEF2 transcriptional activity screen (Luciferase-MEF2 reporter in human neural progenitor cells); assay type: cell-based
[2] = literature references given; cited from earlier work
[3] = Homo sapiens, concentration for half-maximal activity derived from the hill equation model, MEF2 luciferase reporter, read-out: qAC50
[4] = concentration for half-maximal activity derived from the hill equation model, MEF2 luciferase reporter, read-out: qAC50

| Molecule | EC50 [1, 3] | EC50 [1, 4] | other results |
| --- | --- | --- | --- |
| C/C(=N\NC(=O)c1ccc(C(=O)O)s1)c1csc(-c2ccc(Cl)c(Cl)c2)c1O [ONO-7746] | 2.57e-06 M |  |  |
| CN1Cc2ccccc2[C@@H]2c3cccc4[nH]cc(c34)C[C@H]21 [CY-208-243] |  | 1.96e-05 M |  |
| COC(=O)Nc1nc2cc(Sc3ccc(NC(=O)[C@H](C)N)cc3)ccc2[nH]1 [DENIBULIN] |  | 1.51e-06 M |  |
| CC(C)OC(=O)CCC/C=C\C[C@H]1C(=O)C=C[C@@H]1/C=C/[C@@H](O)CCc1ccccc1 [Posaraprost] | > 4.97e-06 M |  |  |
| CN(C)CCOc1ccc2[nH]c(C(=O)NCC#Cc3ccc(C(=O)NO)cc3)cc2c1 [CRA-026440] |  | 1.29e-05 M |  |
| CCOC(=O)/C(=C/c1ncc([N+](=O)[O-])n1C)C(C)=O [Propenidazole] |  | 3.11e-06 M |  |
| Chidamide |  | 3.67e-08 M |  |
| CCN(CC)Cc1ccc2cc(COC(=O)Nc3ccc(C(=O)NO)cc3)ccc2c1 [Givinostat hydrochloride] | 9.72e-07 M |  |  |
| XR 5944 |  | 4.52e-06 M |  |
| CSCCOC(=O)C1=C(C)NC(C)=C(C(=O)OCCSC)C1c1ccccc1[N+](=O)[O-] | 2.07e-06 M |  |  |
| COc1cc(F)c(F)c(Nc2ccc(I)cc2F)c1NS(=O)(=O)C1(C[C@H](O)CO)CC1 [Refametinib] | 2.73e-06 M |  |  |
| C#Cc1cccc(Nc2ncnc3cc(OC)c(OCCCCCCC(=O)NO)cc23)c1 [CUDC-101] | 1.05e-06 M |  |  |
| COC(=O)C1=C(C)NC(C)=C(C(=O)OCC(C)=O)C1c1ccccc1[N+](=O)[O-] (stereo not drawn) [ARANIDIPINE] |  | 3.11e-06 M |  |
| CY-190602 |  | 2.41e-06 M |  |
| Nc1c2ccccc2nc2ccccc12 [ACRISORCIN] | 1.93e-05 M |  | PAMPA Pe (10^−6 cm s^−1) [2]: 6 10^−6 cm s^−1 |
| COc1cccc(-c2ccc(NC(=O)C3=C(C(=O)O)CCC3)c(F)c2)c1 [vidofludimus] | > 1.99e-05 M |  |  |
| COC(=O)Nc1nc2cc(C3(O)c4ccccc4C(=O)N3c3cc(Cl)ccc3C)ccc2[nH]1 (stereo not drawn) [BMS-908662] |  | > 1.99e-05 M |  |
| CC(=O)C(=Cc1ccccc1)C(C)=O | 1.57e-05 M |  |  |
| Cn1cc(CNCC2CCN(c3ncc(C(=O)NO)cn3)CC2)c2ccccc21 [quisinostat] | 9.07e-08 M |  |  |
| O=C(/C=C/c1ccc(CN(CCO)CCc2c[nH]c3ccccc23)cc1)NO [LAQ 824] |  | 5.3e-07 M |  |
| Cn1cnc2c(F)c(Nc3ccc(Br)cc3F)c(C(=O)NOCCO)cc21 [binimetinib] |  | > 1.99e-05 M |  |

| Molecule | EC50 [1, 3] | EC50 [1, 4] | other results |
| --- | --- | --- | --- |
| Cn1cc(-c2ccc(S(=O)(=O)n3ccc(/C=C/C(=O)Nc4ccccc4N)c3)cc2)cn1 [4SC-202] | 1.75e-05 M |  |  |
| O=C(CCCCCCC(=O)Nc1cccnc1)NO [pyroxamide] | > 1.99e-05 M |  |  |
| Cc1nn(C)cc1CN1CCC(c2ccc(C(=O)Nc3ccccc3N)cc2)CC1 [AZD-9468] |  | > 1.99e-05 M |  |
| CCCCCN=C(N)Nc1nc(-c2cnc(C)[nH]2)cs1 [CP 66948] |  | > 1.99e-05 M |  |
| CC(CO)(CO)NCc1ccc2c3c(cccc13)-c1ccccc1-2 [773U82] | 1.89e-05 M |  |  |
| O=C(NO)c1cnc(N2CCN(S(=O)(=O)c3ccc4ccccc4c3)CC2)nc1 [JNJ-16241199] | 1.59e-07 M |  |  |
| CCCCCCC(C)(C)c1cc(O)c2c(c1)OC(C)(C)[C@H]1CC=C(CO)C[C@H]21 [Dexanabinol] | 7.97e-06 M |  |  |
| C=C(C)[C@]12C[C@@H](C)[C@@]34O[C@](Cc5ccccc5)(O[C@@H]1[C@@H]3C=C(COC(=O)Cc1ccc(O)c(OC)c1)C[C@]1(O)C(=O)C(C)=C[C@@H]41)O2 [Resiniferatoxin] | 5.11e-09 M |  |  |
| Cc1sc2c(c1C)C(c1ccc(Cl)cc1)=N[C@@H](CC(=O)Nc1ccc(O)cc1)c1nnc(C)n1-2 [OTX-015] | 4.51e-07 M |  |  |
| Cc1c(OCC(F)(F)F)ccnc1C[S@@+]([O-])c1nc2ccccc2[nH]1 [dexlansoprazole] |  | > 1.99e-05 M |  |
| CC[C@@H]1C(=O)N(C)c2cnc(Nc3ccc(C(=O)NC4CCN(C)CC4)cc3OC)nc2N1C1CCCC1 [BI-2536] | 2.09e-07 M |  |  |
| O=C(NOCCO)c1cc(CN2OCCCC2=O)c(F)c(F)c1Nc1ccc(I)cc1F [CH-4987655] |  |  | EC50 ([1]; Homo sapiens, read-out: qAC50 [M]): 1.07e-07 M |
| OXAMFLATIN |  | > 1.99e-05 M |  |
| CN(C)C(C(=O)Nc1ccc2c(=O)[nH]ccc2c1)c1ccsc1 (stereo not drawn) [Verosudil] |  | 7.54e-06 M |  |
| O=C(/C=C/c1cccc(S(=O)(=O)Nc2ccccc2)c1)NO [belinostat] | 6.7e-07 M |  |  |
| Nc1ccccc1NC(=O)c1ccc(CNC(=O)OCc2cccnc2)cc1 [entinostat] | 1.49e-07 M |  |  |
| CC(C)Nc1cc(-c2c[nH]c(C(=O)N[C@H](CO)c3cccc(Cl)c3)c2)c(Cl)cn1 [BVD-523] |  | 9.87e-07 M |  |
| C[C@H](Nc1cc(-c2cnn(C)c2)cc(Nc2cnccn2)n1)c1ccc(F)cc1 [NS-018] |  | 1.12e-05 M |  |
| CC(C)(CO)c1cc2cc(NC(=O)C3(c4ccc5c(c4)OC(F)(F)O5)CC3)c(F)cc2n1C[C@@H](O)CO [VX-661] | > 1.99e-05 M |  |  |
| COC(=O)C1=C(C)NC(C)=C(C(=O)OC(C)C)C1c1ccccc1[N+](=O)[O-] (stereo not drawn) | 1.53e-06 M |  |  |
| O=C(NO)c1ccc(C2=Nc3ccccc3Oc3ccccc32)cc1 [EVP-0334] | 3.03e-06 M |  |  |

| Molecule | EC50 [1, 3] | EC50 [1, 4] | other results |
| --- | --- | --- | --- |
| O=C(CCCCCCNC(=O)c1cnc(N(c2ccccc2)c2ccccc2)nc1)NO [ricolinostat] |  | 2.79e-06 M |  |
| COc1ccc2nc(-c3cccc(F)c3)cc(O)c2c1OP(=O)(OCc1ccccc1)OCc1ccccc1 [TRX-818] | 1.01e-05 M |  |  |
| CC(C)(C)c1[nH]cnc1/C=c1\[nH]c(=O)/c(=C/c2ccccc2)[nH]c1=O [plinabulin] |  | 2.67e-06 M |  |
| CC[C@]1(O)C[C@@H]2CN(CCc3c([nH]c4ccccc34)[C@@](C(=O)OC)(c3cc4c(cc3OC)N(C)[C@H]3[C@@](O)(C(=O)OC)[C@H](OC(C)=O)[C@]5(CC)C=CCN6CC[C@]43[C@@H]65)C2)C1 [Vinblastine sulfate] |  |  | EC50 ([1]; read-out: qAC50): 6.73e-08 M |
| CN(C)CCCNC(=O)/C(=C/CCCCC(=O)NO)COc1cccc2ccccc12 [CG-200745] | 2.14e-07 M |  |  |
| COc1ccc2[nH]cc(CCN(C(C)C)C(C)C)c2c1 [5-MeO-DIPT] |  | > 1.99e-05 M |  |
| C[C@H](NC(=O)C(=O)Nc1ccccc1C(C)(C)C)C(=O)N[C@@H](CC(=O)O)C(=O)COc1c(F)c(F)cc(F)c1F [emricasan] | 8.71e-06 M |  |  |
| COc1ccc(C(=O)/C(Br)=C/C(=O)O)cc1 [Bromebrate sodium] | > 1.99e-05 M |  |  |
| CN(C)CCNC(=O)c1cccc2cc3ccccc3nc12 [SN-22995] | > 1.99e-05 M |  |  |
| CN(C)CCCn1c(=O)c2ccccc2c2ccccc21 [FANTRIDONE] |  | 5.38e-06 M |  |
| O=C(Cc1ccc(-c2ccc(N3CCOCC3)cc2)cn1)NCc1cccc(F)c1 [KX-02] |  | 5.8e-07 M |  |
| COc1cc2c(cc1O)C[C@H]1c3c(cc(O)c(OC)c3-2)CCN1C [boldine] | 1.33e-05 M |  |  |
| O=C(NOCC1CC1)c1ccc(F)c(F)c1Nc1ccc(I)cc1Cl [CI-1040] | 8.54e-07 M |  |  |
| O=C(NO)c1cnc(N2C[C@@H]3[C@H](C2)[C@H]3NCc2ccc3cc(F)ccc3n2)nc1 [CHR-3996] | 2.8e-07 M |  |  |
| O=C(Nc1nc2cccc(-c3ccc(CN4CCS(=O)(=O)CC4)cc3)n2n1)C1CC1 [Filgotinib] |  | > 1.99e-05 M |  |
| CCOC(=O)OC(C)OC(=O)CNC(=O)[C@@H](CSSC[C@@H](N)CCSC)Cc1ccccc1 (stereo partly drawn) [PL-37] | 1.29e-05 M |  |  |
| CCN(CC)CCNc1ccc(CNC)c2sc3ccccc3c(=O)c12 [WIN 33156] | > 1.99e-05 M |  |  |
| Cc1[nH]c2ccccc2c1CCNCc1ccc(/C=C/C(=O)NO)cc1 [Panobinostat lactate] | 1.22e-08 M |  |  |
| CCCNC(=O)c1ccc2c(c1)N(C(C)CN1CCCC1)c1ccccc1S2 (stereo not drawn) [Apadoline] | 1.97e-05 M |  |  |
| O=c1oc(CCN2CCN(c3ccccc3)CC2)c(-c2ccc(Cl)cc2)o1 [CLODOXOPONE] | > 1.99e-05 M |  |  |
| N/C(=N\Nc1ccccc1)c1ccccc1 [CBS-1114] | > 1.99e-05 M |  |  |

| Molecule | EC50 [1, 3] | EC50 [1, 4] | other results |
| --- | --- | --- | --- |
| Cn1nccc1Nc1nccc(-c2ccn([C@H](CO)c3ccc(Cl)c(F)c3)c(=O)c2)n1 [RG-7842] | 1.23e-05 M |  |  |
| CCN1CCC(Oc2c(C#N)ncc3[nH]c4ncccc4c23)CC1 [GDC-0425] |  | 1.26e-06 M |  |
| COc1ccc2[nH]c(C(=O)c3ccccc3)cc2c1 [D-64131] |  | 3.74e-06 M |  |
| Acriflavine |  | 2.31e-06 M |  |
| Clc1ccc2oc(C(c3ccccc3Cl)n3ccnc3)cc2c1 (stereo not drawn) [BECLICONAZOLE] |  | 5.1e-06 M |  |
| COc1ccc2c(c1)-c1nn(CCCN(C)C)c3ccc([N+](=O)[O-])c(c13)N2 [Pyrazoloacridine] |  | > 1.99e-05 M |  |
| CCCCc1ccc2[nH]c(NC(=O)OC)nc2c1 [PARBENDAZOLE] |  | 1.75e-06 M |  |
| CCCCc1nc2cc(/C=C/C(=O)NO)ccc2n1CCN(CC)CC [pracinostat] | 2.1e-07 M |  |  |
| CN(C)c1ccc2nc3ccc(N(C)C)cc3[s+]c2c1 [methylthioninium chloride] |  | 3.77e-06 M |  |
| CNS(=O)(=O)Nc1nccc(Cc2c(C)c3ccc(Oc4ncccn4)cc3oc2=O)c1F [RO-5126766] | 3.91e-08 M |  | PAMPA Pe (10^−6 cm s^−1) [2]: 6 10^−6 cm s^−1 |
| O=c1cc(-c2ccc(O)cc2)oc2cc(O)cc(O)c12 [APIGENIN] | 4.69e-06 M |  |  |
| CC(=O)Nc1ccc(C(=O)Nc2ccccc2N)cc1 [Tacedinaline] | 1.31e-05 M |  |  |
| CC(C)c1ccc(CN2CCN(C(c3ccc(F)cc3)c3ccc(F)cc3)CC2)c(=O)c(NCCO)c1 [U 92032] | > 1.99e-05 M |  |  |
| CCCc1cc(O)c2c(c1)OC(C)(C)[C@@H]1CCC(C)=C[C@@H]21 [DELTA-9-TETRA-[…]] | 2.29e-06 M |  |  |
| CCC(C)SSc1ncc[nH]1 (stereo not drawn) [PX-12] |  | 9.95e-07 M |  |
| CN(C)Cc1c(C(=O)NCCOc2ccc(C(=O)NO)cc2)oc2ccccc12 [abexinostat] | 2.2e-06 M |  |  |
| CN(C)Cc1ccc(S(=O)(=O)n2ccc(/C=C/C(=O)NO)c2)cc1 [resminostat] |  | 1.23e-06 M |  |
| CC1(C)C(=O)Nc2cc3[nH]c(-c4ccncc4)nc3cc21 [ADIBENDAN] |  | > 1.99e-05 M |  |
| retapamulin |  | 1.96e-05 M |  |
